The values below come from US12649751B2 (Arcus Biosciences, Inc., priority 2022, dated 2026).

Like-named read-outs stand apart in the source and are kept apart here.

The subject of test [1] is p-SLP-76 (Ser376) in Jurkat cells. In words: pSLP76 Cellular Assay (AlphaLISA SureFire Ultra p-SLP-76 (Ser376), anti-CD3 activated Jurkat cells). It counts as cell-based. The note with it: pSLP76 (Ser376) AlphaLISA, anti-CD3 activated Jurkat cells, read-out: Cellular Potency. Summed up: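 Jurkat cells, serum-starved overnight in Opti-MEM then in HBSS, preincubated 1 h at 37 °C with 22-point 2-fold compound dilutions, then stimulated with anti-CD3 (0.025 mg/ml added solution) for 45 min. Lysate p-SLP-76 (Ser376) measured by AlphaLISA at 570 nm; IC50 from 4-parameter logistic fit.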
A general note: In Alpha technology, singlet oxygen from a donor bead excites a nearby acceptor bead.

In a further test the target is HPK1 (Homo sapiens, UniProt Q92918). Briefly: HPK1 Biochemical Assay (ADP-Glo luminescence; low ATP 10 μM or high ATP 200 μM). The note with it: HPK1 ADP-Glo assay, high ATP (200 μM ATP, 5 nM HPK1); read-out: Biochemical Potency (high ATP). On the technique in general: ADP-Glo first removes unused ATP, then detects ADP through luciferase.
Sequence of HPK1 (Q92918 whole entry, species assumed): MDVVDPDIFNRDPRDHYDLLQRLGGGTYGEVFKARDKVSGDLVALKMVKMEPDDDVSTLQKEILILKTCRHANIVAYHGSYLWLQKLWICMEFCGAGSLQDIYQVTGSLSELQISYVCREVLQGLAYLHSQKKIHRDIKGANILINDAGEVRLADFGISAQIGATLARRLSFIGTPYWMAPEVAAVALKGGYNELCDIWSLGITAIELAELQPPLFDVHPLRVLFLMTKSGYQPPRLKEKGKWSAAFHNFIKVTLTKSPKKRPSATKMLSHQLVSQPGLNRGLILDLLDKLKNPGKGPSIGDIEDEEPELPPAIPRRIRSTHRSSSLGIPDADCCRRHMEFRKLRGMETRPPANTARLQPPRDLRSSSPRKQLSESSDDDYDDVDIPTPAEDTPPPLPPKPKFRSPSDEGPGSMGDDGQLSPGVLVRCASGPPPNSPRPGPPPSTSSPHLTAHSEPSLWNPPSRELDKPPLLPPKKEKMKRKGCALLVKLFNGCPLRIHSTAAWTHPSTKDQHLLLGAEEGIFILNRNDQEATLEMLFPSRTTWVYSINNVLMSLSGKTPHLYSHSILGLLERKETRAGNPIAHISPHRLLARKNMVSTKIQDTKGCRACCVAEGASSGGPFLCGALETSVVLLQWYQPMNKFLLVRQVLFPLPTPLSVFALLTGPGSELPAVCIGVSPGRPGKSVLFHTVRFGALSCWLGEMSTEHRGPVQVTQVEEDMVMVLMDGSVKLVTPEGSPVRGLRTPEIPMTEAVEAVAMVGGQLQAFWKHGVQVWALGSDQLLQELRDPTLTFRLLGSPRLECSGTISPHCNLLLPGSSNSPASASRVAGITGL

For the molecule `CCN1C[C@@H]2C[C@H]1CN2c1nc(C)cc(Nc2cc3nc(-c4cccc(C(=O)N5C[C@@H]6OCCO[C@@H]6C5)c4)sc3cn2)n1` [Example 529], the IC50 (in test [1] (Homo sapiens); on HPK1) was less than 100 nM each time.
Consider `CCN1C[C@@H]2C[C@H]1CN2c1nc(C)cc(Nc2cc3nc(-c4cccc(C(=O)N5CCC6(CCOC6)C5)c4)sc3cn2)n1` (stereo partly shown) [Example 530], for which the IC50 in test [1] (Homo sapiens) was 100 to 1000 nM; at HPK1, less than 100 nM.
On to `CCN1C[C@@H]2C[C@H]1CN2c1nc(C)cc(Nc2cc3nc(-c4cccc(C(=O)N5CCCOCC5)c4)sc3cn2)n1` [Example 531], for which the IC50 in test [1] (Homo sapiens) was 100 to 1000 nM; at HPK1 it was less than 100 nM.
In the case of `CCN1C[C@@H]2C[C@H]1CN2c1nc(C)cc(Nc2cc3nc(-c4cccc(C(=O)NC5CCOCC5)c4)sc3cn2)n1` [Example 532], the IC50 in test [1] (Homo sapiens) is 100 to 1000 nM; on HPK1 it was less than 100 nM.
Consider `CCN1C[C@@H]2C[C@H]1CN2c1nc(C)cc(Nc2cc3nc(-c4cccc(C(=O)N5CC[C@H](C)C5)c4)sc3cn2)n1` [Example 533], for which the IC50 (in test [1] (Homo sapiens); at HPK1) was less than 100 nM each time.
For the molecule `CCN1C[C@@H]2C[C@H]1CN2c1nc(C)cc(Nc2cc3nc(-c4cccc(C(=O)N5CC[C@H](OC)C5)c4)sc3cn2)n1` [Example 534], the IC50 is 100 to 1000 nM in test [1] (Homo sapiens) and less than 100 nM on HPK1.
On to `CCN1C[C@@H]2C[C@H]1CN2c1nc(C)cc(Nc2cc3nc(-c4cccc(C(=O)N5CCC[C@@H]5COC)c4)sc3cn2)n1` [Example 535], for which the IC50 (in test [1] (Homo sapiens); on HPK1) was less than 100 nM in each case.
Take `CCN1C[C@@H]2C[C@H]1CN2c1nc(C)cc(Nc2cc3nc(-c4cc(C(=O)N(C)C)cc(C5CC5)c4)sc3cn2)n1` [Example 536]: the IC50 (in test [1] (Homo sapiens); at HPK1) was less than 100 nM throughout.
Regarding `Cc1cc(-c2nc3cc(Nc4cc(C)nc(N5C[C@@H]6C[C@H]5CN6CCO)n4)ncc3s2)cc(C2CC2)n1` [Example 537], the IC50 was 100 to 1000 nM in test [1] (Homo sapiens) and less than 100 nM on HPK1.
As for `CCN1C[C@@H]2C[C@H]1CN2c1nc(C)cc(Nc2cc3nc(-c4cccc(C(=O)N5CCC(F)CC5)c4)sc3cn2)n1` [Example 538], the IC50 (in test [1] (Homo sapiens); at HPK1) was less than 100 nM in each case.
As to `Cc1cc(Nc2cc3nc(-c4cccc(C(=O)N[C@@H]5CCCOC5)c4)sc3cn2)nc(N2C[C@@H]3C[C@H]2CN3CCO)n1` [Example 540], the IC50 (in test [1] (Homo sapiens); on HPK1) was less than 100 nM in each case.
With `Cc1cc(Nc2cc3nc(-c4cccc(C(=O)N[C@H]5CCCOC5)c4)sc3cn2)nc(N2C[C@@H]3C[C@H]2CN3CCO)n1` [Example 541], the IC50 in test [1] (Homo sapiens) was 100 to 1000 nM; on HPK1, less than 100 nM.
`Cc1cc(Nc2cc3nc(-c4cccc(C(=O)N(C)[C@H]5CCCOC5)c4)sc3cn2)nc(N2C[C@@H]3C[C@H]2CN3CCO)n1` [Example 543]: the IC50 (in test [1]; at HPK1) was less than 100 nM each time.
`Cc1cc(Nc2cc3nc(-c4cccc(C(=O)N(C)C5CCCC5)c4)sc3cn2)nc(N2C[C@@H]3C[C@H]2CN3CCO)n1` [Example 544]: the IC50 (in test [1] (Homo sapiens); on HPK1) was less than 100 nM throughout.
Consider `Cc1cc(Nc2cc3nc(-c4cccc(C(=O)NC5CCCC5)c4)sc3cn2)nc(N2C[C@@H]3C[C@H]2CN3CCO)n1` [Example 545], for which the IC50 (in test [1] (Homo sapiens); at HPK1) was less than 100 nM throughout.
As for `CCc1cc(C(=O)N(C)C)cc(-c2nc3cc(Nc4cc(C)nc(N5C[C@@H]6C[C@H]5CN6CCO)n4)ncc3s2)c1` [Example 546], the IC50 (in test [1] (Homo sapiens); on HPK1) was less than 100 nM in each case.
As for `Cc1cc(Nc2cc3nc(-c4cccc(C(=O)N5CCOC[C@H]5C)c4)sc3cn2)nc(N2C[C@@H]3C[C@H]2CN3CCO)n1` [Example 547], the IC50 was 100 to 1000 nM in test [1] (Homo sapiens) and less than 100 nM at HPK1.
As to `Cc1cc(Nc2cc3nc(-c4cccc(C(=O)N5CCC[C@@H]5C)c4)sc3cn2)nc(N2C[C@@H]3C[C@H]2CN3CCO)n1` [Example 548], the IC50 (in test [1] (Homo sapiens); on HPK1) was less than 100 nM in each case.
As for `CNC(=O)c1cccc(-c2nc3cc(Nc4cc(C)nc(N5C[C@@H]6C[C@H]5CN6CCO)n4)ncc3s2)c1` [Example 549], the IC50 in test [1] (Homo sapiens) was 100 to 1000 nM; on HPK1, less than 100 nM.
As to `Cc1cc(Nc2cc3nc(-c4cccc(C(=O)N5CCC[C@H]5C)c4)sc3cn2)nc(N2C[C@@H]3C[C@H]2CN3CCO)n1` [Example 550], the IC50 in test [1] (Homo sapiens) is 100 to 1000 nM; on HPK1 it was less than 100 nM.
The matching figures for `Cc1cc(Nc2cc3nc(-c4cc(C(=O)N(C)C)cc(C(C)C)c4)sc3cn2)nc(N2C[C@@H]3C[C@H]2CN3CCO)n1` [Example 551]: less than 100 nM and less than 100 nM.
The matching figures for `Cc1cc(Nc2cc3nc(-c4cc(C(=O)N(C)C)cc(C5CC5)c4)sc3cn2)nc(N2C[C@@H]3C[C@H]2CN3CCO)n1` [Example 552]: less than 100 nM and less than 100 nM.
The like results for `Cc1cc(Nc2cc3nc(-c4cccc(C(N)=O)c4)sc3cn2)nc(N2C[C@@H]3C[C@H]2CN3CCO)n1` [Example 553] were, in that order, 1000 to 5000 nM and less than 100 nM.
For the molecule `Cc1cc(Nc2cc3nc(-c4cc(C#N)cc(C(=O)N(C)C)c4)sc3cn2)nc(N2C[C@@H]3C[C@H]2CN3CCO)n1` [Example 554], the IC50 in test [1] (Homo sapiens) is 100 to 1000 nM; at HPK1 it was less than 100 nM.
`Cc1cc(Nc2cc3nc(-c4cccc(C(=O)N(C)[C@H]5CCOC5)c4)sc3cn2)nc(N2C[C@@H]3C[C@H]2CN3CCO)n1` [Example 555]: the IC50 (in test [1] (Homo sapiens); on HPK1) was less than 100 nM each time.
Regarding `CCN1C[C@@H]2C[C@H]1CN2c1nc(C)cc(Nc2cc3nc(-c4cccc(C(=O)NC5CCOC5)c4)sc3cn2)n1` (stereo partly shown) [Example 556], the IC50 (in test [1] (Homo sapiens); at HPK1) was less than 100 nM throughout.
For the molecule `Cc1cc(Nc2cc3nc(-c4cccc(C(=O)N(C)CC5CC5)c4)sc3cn2)nc(N2C[C@@H]3C[C@H]2CN3CCO)n1` [Example 558], the IC50 (in test [1] (Homo sapiens); at HPK1) was less than 100 nM throughout.
`Cc1cc(Nc2cc3nc(-c4cccc(C(=O)N(C)[C@@H](C)CO)c4)sc3cn2)nc(N2C[C@@H]3C[C@H]2CN3CC2CC2)n1` [Example 560]: the IC50 (in test [1] (Homo sapiens); on HPK1) was less than 100 nM in each case.
With `Cc1cc(Nc2cc3nc(-c4cccc(C(=O)N(C)[C@@H](C)CO)c4)sc3cn2)nc(N2C[C@@H]3C[C@H]2CN3C)n1` [Example 561], the figures for the IC50 (in test [1] (Homo sapiens); on HPK1) were 100 to 1000 nM and less than 100 nM, respectively.
Take `Cc1cc(C(=O)N(C)C)cc(-c2nc3cc(Nc4cc(C)nc(N5C[C@@H]6C[C@H]5CN6CCO)n4)ncc3s2)c1` [Example 562]: the IC50 (in test [1] (Homo sapiens); on HPK1) was less than 100 nM throughout.
As to `Cc1cc(Nc2cc3nc(-c4cccc(C(=O)N5C[C@H]6C[C@@H]5CO6)c4)sc3cn2)nc(N2C[C@@H]3C[C@H]2CN3CCO)n1` [Example 563], the IC50 in test [1] (Homo sapiens) was 100 to 1000 nM; at HPK1, less than 100 nM.
Turning to `Cc1cc(Nc2cc3nc(-c4cccc(C(=O)N5C[C@@H]6C[C@H]5CO6)c4)sc3cn2)nc(N2C[C@@H]3C[C@H]2CN3CCO)n1` [Example 564], the IC50 in test [1] (Homo sapiens) is 100 to 1000 nM; at HPK1 it was less than 100 nM.
